In ChEMBL document CHEMBL1201862, “PubChem BioAssay data set” (2004):
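Protocol summary: plate cells (96-well), add compound at 5 concentrations, incubate 48 h, interpolate endpoints linearly. Abbreviation: GI50, concentration required for 50% inhibition of growth.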 Calls of active or inactive are those of the source. Rule as the data show it: active = GI50 up to about 1.1 µM and inactive = higher.

Legend:
Assay in all cases: DTP human tumour cell line panel, 48 h
NCI-H226 = test system: NCI-H226
EKVX = test system: EKVX
RPMI-8226 = test system: RPMI-8226
MOLT-4 = test system: MOLT-4
SK-MEL-2 = test system: SK-MEL-2
HOP-62 = test system: HOP-62
SN12C = test system: SN12C
LOX IMVI = test system: LOX IMVI
NCI-H23 = test system: NCI-H23
OVCAR-5 = test system: OVCAR-5
UACC-257 = test system: UACC-257
KM12 = test system: KM12
HT-29 = test system: HT-29
SK-OV-3 = test system: SK-OV-3
K562 = test system: K562
OVCAR-8 = test system: OVCAR-8
CAKI-1 = test system: CAKI-1
SK-MEL-5 = test system: SK-MEL-5
COLO 205 = test system: COLO 205
OVCAR-4 = test system: OVCAR-4

| SMILES | GI50 (NCI-H226) | GI50 (EKVX) | GI50 (RPMI-8226) | GI50 (MOLT-4) | GI50 (SK-MEL-2) | GI50 (HOP-62) | GI50 (SN12C) | GI50 (LOX IMVI) | GI50 (NCI-H23) | GI50 (OVCAR-5) | GI50 (UACC-257) | GI50 (KM12) | GI50 (HT-29) | GI50 (SK-OV-3) | GI50 (K562) | GI50 (OVCAR-8) | GI50 (CAKI-1) | GI50 (SK-MEL-5) | GI50 (COLO 205) | GI50 (OVCAR-4) |
| --- | --- | --- | --- | --- | --- | --- | --- | --- | --- | --- | --- | --- | --- | --- | --- | --- | --- | --- | --- | --- |
| COC(=O)C1=C(O)C(C(=O)OC)[C@]2(O)[C@@H](C(=O)OC)[C@H]1C[C@@H](c1ccccc1)[C@@H]2C(=O)OC (stereo partly specified) | 18.6 µM (inactive) | 17.5 µM (inactive) | 9.73 µM (inactive) | 11.6 µM (inactive) | 13.9 µM (inactive) | 20 µM (inactive) | 15.7 µM (inactive) | 15.4 µM (inactive) | 15.2 µM (inactive) | 16 µM (inactive) | 10.3 µM (inactive) | 11.7 µM (inactive) | 16.3 µM (inactive) | 17.4 µM (inactive) | 5.61 µM (inactive) |  |  |  |  |  |
| O=C1C2Cc3ccccc3CN2C(=O)N1CN1CCCCC1 (stereo unspecified) | > 100 µM (inactive) |  | 31.1 µM (inactive) | > 100 µM (inactive) | > 100 µM (inactive) | > 100 µM (inactive) | > 100 µM (inactive) | > 100 µM (inactive) | > 100 µM (inactive) | > 100 µM (inactive) |  | > 100 µM (inactive) |  |  | > 100 µM (inactive) | > 100 µM (inactive) | > 100 µM (inactive) | > 100 µM (inactive) | > 100 µM (inactive) | > 100 µM (inactive) |
| O=C(O)c1ccccc1C(=O)c1ccco1 | > 100 µM (inactive) | > 100 µM (inactive) |  | > 100 µM (inactive) | > 100 µM (inactive) | > 100 µM (inactive) | > 100 µM (inactive) | > 100 µM (inactive) | > 100 µM (inactive) | > 100 µM (inactive) | > 100 µM (inactive) | > 100 µM (inactive) | > 100 µM (inactive) |  | > 100 µM (inactive) | > 100 µM (inactive) | > 100 µM (inactive) | > 100 µM (inactive) | > 100 µM (inactive) | > 100 µM (inactive) |
| COc1ccc(Sc2ccccc2N)cc1 | 22.7 µM (inactive) | 53.7 µM (inactive) | 45.9 µM (inactive) | 26.9 µM (inactive) | > 100 µM (inactive) | 65.9 µM (inactive) | 33.1 µM (inactive) | 64 µM (inactive) | 43.6 µM (inactive) | 46.5 µM (inactive) | 38.5 µM (inactive) | 41.3 µM (inactive) | 23.3 µM (inactive) | > 100 µM (inactive) | 41.6 µM (inactive) | 60.5 µM (inactive) |  | 22.3 µM (inactive) | 17 µM (inactive) | 34.8 µM (inactive) |
| COc1cc(C)cc2c1C(=O)C(NC(C)=O)=CC2=O | > 100 µM (inactive) | > 100 µM (inactive) | > 100 µM (inactive) | 28.2 µM (inactive) | > 100 µM (inactive) | > 100 µM (inactive) | > 100 µM (inactive) |  | > 100 µM (inactive) | > 100 µM (inactive) | 57.4 µM (inactive) | > 100 µM (inactive) | > 100 µM (inactive) | > 100 µM (inactive) | 43.1 µM (inactive) | > 100 µM (inactive) | > 100 µM (inactive) | > 100 µM (inactive) | > 100 µM (inactive) | 24.6 µM (inactive) |
| CCOC(=O)C[C@@H]1C2(C=C[C@@]13CO3)OCC(C)(C)CO2 | > 100 µM (inactive) | > 100 µM (inactive) |  | > 100 µM (inactive) | > 100 µM (inactive) | > 100 µM (inactive) | > 100 µM (inactive) | > 100 µM (inactive) | > 100 µM (inactive) | > 100 µM (inactive) | > 100 µM (inactive) |  | > 100 µM (inactive) | > 100 µM (inactive) | > 100 µM (inactive) | > 100 µM (inactive) | > 100 µM (inactive) | > 100 µM (inactive) | > 100 µM (inactive) | 8.2 µM (inactive) |
| C#CC[C@@]12CC(=O)C[C@@H]1CCC1(C2)OCCO1.C#CC[C@]12CC(=O)CC[C@H]1CC(=O)C2 | > 100 µM (inactive) | > 100 µM (inactive) | > 100 µM (inactive) | 34.4 µM (inactive) | > 100 µM (inactive) | > 100 µM (inactive) | > 100 µM (inactive) | > 100 µM (inactive) | > 100 µM (inactive) | > 100 µM (inactive) | 90.8 µM (inactive) | > 100 µM (inactive) | > 100 µM (inactive) | > 100 µM (inactive) | 59.7 µM (inactive) | > 100 µM (inactive) |  | > 100 µM (inactive) | > 100 µM (inactive) | > 100 µM (inactive) |
| CC(=O)O[C@H]1[C@@H]2OC(=O)[C@@](O)(CC3CCCO3)[C@@H]2CC(=O)[C@](C)(O)CC/C=C(\C)CCC[C@@H]1C (stereo partly specified) | 15.6 µM (inactive) | 52.8 µM (inactive) | 26.2 µM (inactive) |  | 57.5 µM (inactive) |  | 30.4 µM (inactive) | 20.8 µM (inactive) |  | > 100 µM (inactive) | 70.3 µM (inactive) | 67.6 µM (inactive) |  |  | 24.4 µM (inactive) | 35.6 µM (inactive) | 19.9 µM (inactive) | 43.6 µM (inactive) | 18.6 µM (inactive) | 52.8 µM (inactive) |
| COC(=O)C1=COC2OC3/C(=C\c4ccc(O)c(OC)c4)C(=O)OC34C=CC1C24 (stereo unspecified) | 14.4 µM (inactive) |  | 26.1 µM (inactive) | 31.2 µM (inactive) | 11.3 µM (inactive) | 24.5 µM (inactive) | 17.8 µM (inactive) |  | 17.7 µM (inactive) | 18.3 µM (inactive) | 15.9 µM (inactive) | 13.8 µM (inactive) | 19.2 µM (inactive) | 17 µM (inactive) | 15.5 µM (inactive) | 18.9 µM (inactive) | 23.3 µM (inactive) | 35.2 µM (inactive) | 20.1 µM (inactive) | 17.6 µM (inactive) |
| CCCCOP1(=O)C=CC(Cl)=C(C)C1 (stereo unspecified) | 21.4 µM (inactive) | 70.3 µM (inactive) | 22.3 µM (inactive) | 3.83 µM (inactive) | 12.4 µM (inactive) | 71.3 µM (inactive) | 20 µM (inactive) |  | > 10 µM (inactive) |  | > 10 µM (inactive) | 21.5 µM (inactive) | 22 µM (inactive) |  | 3.28 µM (inactive) | 21.6 µM (inactive) | 68.7 µM (inactive) |  | 33 µM (inactive) | 25.2 µM (inactive) |
| CSc1nc2c(ncn2C2OCC(O)C(O)C2O)c(=O)n1C (stereo unspecified) | > 100 µM (inactive) | > 100 µM (inactive) | > 100 µM (inactive) | > 100 µM (inactive) | > 100 µM (inactive) | > 100 µM (inactive) | > 100 µM (inactive) | > 100 µM (inactive) | > 100 µM (inactive) | > 100 µM (inactive) | > 100 µM (inactive) | > 100 µM (inactive) | > 100 µM (inactive) | > 100 µM (inactive) | > 100 µM (inactive) | > 100 µM (inactive) |  | > 100 µM (inactive) | > 100 µM (inactive) | > 100 µM (inactive) |
| CCOC(=O)c1ccc(N[C@@H]2c3cc4c(cc3C(c3cc(OC)c(O)c(OC)c3)[C@H]3C(=O)OCC32)OCO4)cc1 (stereo partly specified) | 0.284 µM (active) | 1.77 µM (inactive) | 0.145 µM (active) | 0.0142 µM (active) | 2.63 µM (inactive) |  | 0.396 µM (active) |  | 0.339 µM (active) | 1.56 µM (inactive) | 3.57 µM (inactive) | 1.5 µM (inactive) | 1.94 µM (inactive) | 0.955 µM (active) |  | 0.708 µM (active) | 0.251 µM (active) | 0.505 µM (active) | 3.15 µM (inactive) | 4.21 µM (inactive) |
| CC1C[C@]2(C[C@@H](C)C(=O)O2)OC2CC3(C)C4CCC5C(C)(C)OC(=O)CC[C@@]56C[C@@]46CC[C@]3(C)C12 (stereo partly specified) | > 100 µM (inactive) | > 100 µM (inactive) | > 100 µM (inactive) | > 100 µM (inactive) | > 100 µM (inactive) |  | > 100 µM (inactive) | > 100 µM (inactive) | > 100 µM (inactive) | > 100 µM (inactive) | > 100 µM (inactive) | > 100 µM (inactive) | > 100 µM (inactive) |  | 64.9 µM (inactive) | > 100 µM (inactive) | > 100 µM (inactive) | > 100 µM (inactive) | > 100 µM (inactive) | > 100 µM (inactive) |
| CN(CCCCCl)P(=O)(OCC1=CC(=O)c2ccccc2C1=O)OC[C@H]1O[C@@H](n2cc(F)c(=O)[nH]c2=O)C[C@@H]1O (stereo partly specified) | 0.521 µM (active) | 3.18 µM (inactive) |  |  | 8.09 µM (inactive) | 0.0415 µM (active) | < 0.0323 µM (active) | < 0.01 µM (active) | 0.0532 µM (active) | 4.38 µM (inactive) | 6.17 µM (inactive) | 3.64 µM (inactive) |  |  | 1.5 µM (inactive) | 0.0378 µM (active) | < 0.0115 µM (active) | 0.0334 µM (active) |  | 0.681 µM (active) |
| Cc1ccc2c(O)cc(-c3cc(C)sc3C)nc2n1 | 2.38 µM (inactive) | 10.8 µM (inactive) | 2.37 µM (inactive) | 4.14 µM (inactive) |  | 6.07 µM (inactive) | 6.44 µM (inactive) | 5.08 µM (inactive) | 2.25 µM (inactive) | 11.6 µM (inactive) | > 37.7 µM (inactive) | 3.3 µM (inactive) | 4.82 µM (inactive) | 3.77 µM (inactive) | 2.94 µM (inactive) | 3.91 µM (inactive) | 14.4 µM (inactive) | 0.708 µM (active) | 2.26 µM (inactive) | > 36.6 µM (inactive) |
